Laboratory results taken from patent US20040092581A1, “Ratjadone derivatives for inhibiting cell growth” (priority 2001, published 2004).
Converted amounts (≈) assume the structure as drawn. Where two headings read alike, the source gives them in different places. Marks after values point to notes of the source that are not given here.

Key:
[1] = test system: HM02 (gastroadenocarcinoma); experiment: cells; assay type: cell-based; details: for CC50: read-out: LC50; for TGI: complete inhibition of cell growth
Description: (§1) The tables below show the influence of the substances 1, 36 and 37 according to the invention on the growth of tumor cells, specifically the growth of the cell lines HM02 (gastroadenocarcinoma), HepG2 (liver carcinoma) and MCF 7 (mammary carcinoma).
(§2) The studies were carried out in accordance with the NCI guidelines (Grever et al., Seminars in Oncology 19 (1992), 622-638). The cells were cultured in 96-well microtitre plates in RPMI 1640 medium with 10% FCS (foetal calf serum). 24 h after dissemination of the cells, the substances 1 and 36 according to the invention dissolved in methanol were added and the cells were incubated for a further 48 h. The cell count was then determined.
(§3) GI50: denotes the concentration that effects a semi-maximum inhibition of the cell growth
(§4) TGI: denotes the concentration that effects complete inhibition of the cell growth

HepG2 (liver carcinoma) = experiment: cells; assay type: cell-based; details: for TGI: complete inhibition of cell growth; for GI50 / CC50 / inhibition at 0.5 µg/mL: Homo sapiens; for CC50: read-out: LC50; for inhibition at 0.5 µg/mL: HEP-G2, at 500 ng/ml, read-out: growth inhibition
Description: as §1, §2, §3, §4

[2] = test system: MCF 7 (mammary carcinoma); experiment: cells; assay type: cell-based; details: for GI50 / CC50: Homo sapiens; for CC50: read-out: LC50; for TGI: complete inhibition of cell growth
Description: as §1, §2, §3, §4

HeLa cells (KB3.1) = details: cited from earlier work
Glioblastoma cells = experiment: Influence on the cell cycle, continuous flow cytometry, glioblastoma cells; assay type: cell-based; details: 20 nM, 48 h incubation
Description: (§5) Glioblastoma cells and HepG2 cells (liver carcinoma cells) were in each case incubated for 48 h without the substance 1 according to the invention and in nutrient medium containing various concentrations of the substance 1 according to the invention. The cells were harvested and measured by continuous flow cytometry.
(§6) Bookmark not defined. to […]. for glioblastoma cells and […]. to […]. for HepG2 cells, in each case in plot form. In each case the DNA content is indicated on the X axis and the cell count is indicated on the Y axis. Bookmark not defined. to […]. were obtained in each case with 0 nM, 10 nM and 20 nM, respectively, of the preferred substance 1 according to the invention in the culture medium; the results shown in Figures […]. to […]. were obtained with 0 nM, 2 nM and 5 nM, respectively, of the preferred substance 1 according to the invention in the culture medium.
(§7) It can be seen that for both cell lines tested the absolute number and the number of cells in the S and in the G2 phase decreases with increasing concentration of substance 1. […] The preferred substance 1 according to the invention thus arrests the cell cycle in the G1 phase at the dosage suitable for the particular cell type.

[3] = test system: HepG2 cells (liver carcinoma cells); experiment: Influence on the cell cycle, continuous flow cytometry, HepG2 cells; assay type: cell-based; details: 5 nM, 48 h incubation
Description: as §5, §6, §7

[4] = test system: glioblastoma cells growing on a conventional carrier; experiment: Shape and carrier adhesion of glioblastoma cells; assay type: cell-based; details: 50 nM
Source text: In addition, the shape of glioblastoma cells growing on a conventional carrier as a function of the concentration of the substance 1 according to the invention was investigated (no figure). In the absence of substance 1 the cells have their typical dendritic shape and adhere to (sic) the carrier surface.

[5] = MCF7, MCF 7, 48 h incubation, semi-maximum inhibition of cell growth, read-out: GI50

| Structure (SMILES) | GI50 ([1]; HM02, 48 h) | CC50 ([1]; HM02, 48 h) | TGI ([1]; HM02, 48 h incubation) | TGI (HepG2 (liver carcinoma); HEP-G2, 48 h incubation) | GI50 (HepG2 (liver carcinoma); HepG2, 48 h) | CC50 (HepG2 (liver carcinoma); HepG2, 48 h) | inhibition at 0.5 µg/mL (HepG2 (liver carcinoma); HepG2) | GI50 ([2]; MCF7, 48 h) | CC50 ([2]; MCF7, 48 h) | TGI ([2]; MCF 7, 48 h incubation) | inhibition at 0.1 µg/mL ([1]; HM02, read-out: growth inhibition) | GI50 [2, 5] | IC50, inhibition of growth of HeLa cells (KB3.1) (HeLa cells (KB3.1)) | cell cycle phase distribution (G1 arrest) (Glioblastoma cells) | cell cycle phase distribution (G1 arrest) [3] | cell shape and adhesion to the carrier surface [4] | GI50 ([1]; HM02, 48 h incubation, semi-maximum inhibition of cell growth, read-out: GI50) | GI50 (HepG2 (liver carcinoma); HepG2, HEP-G2, 48 h incubation, semi-maximum inhibition of cell growth, read-out: GI50) |
| --- | --- | --- | --- | --- | --- | --- | --- | --- | --- | --- | --- | --- | --- | --- | --- | --- | --- | --- |
| CC(=C/[C@H](C)C/C(C)=C/C=C/[C@H](O)[C@H]1CCCCO1)/C=C/[C@H]1CC=CC(=O)O1 [Substance 36] | 5 ng/mL (≈ 0.0129 µM) | > 500 ng/mL | 140 ng/mL (≈ 0.362 µM) | >500^c ng/ml | 58 ng/mL (≈ 0.15 µM) | > 500 ng/mL | 60% | 100 ng/mL (≈ 0.259 µM) | > 500 ng/mL | >500^c ng/ml | – | – | – | – | – | – | – | – |
| C/C=C/[C@H]1O[C@@H]([C@@H](O)/C=C/C=C(\C)C[C@@H](C)/C=C(C)\C=C\[C@@H]2CC=CC(=O)O2)C[C@H](O)[C@H]1C [Substance 37] | 17 ng/mL (≈ 0.0372 µM) | > 100 ng/mL | >100^a ng/ml | >100 ng/mL | 85 ng/mL (≈ 0.186 µM) | > 100 ng/mL | – | – | > 100 ng/mL | >100 ng/mL | 90% | 25 ng/mL (≈ 0.0547 µM) | – | – | – | – | – | – |
| C/C=C/[C@@H]1O[C@H]([C@H](O)/C=C/C=C(\C)C[C@@H](C)/C=C(C)\C=C\[C@H]2CC=CC(=O)O2)C[C@@H](O)[C@@H]1C [Ratjadon, ratjadon] | – | – | – | – | – | – | – | – | – | – | – | – | 0.05 ng/mL | – | – | – | – | – |
| C/C=C/[C@H]1O[C@@H]([C@@H](O)/C=C/C=C(\C)C[C@@H](C)/C=C(C)\C=C\[C@H]2CC=CC(=O)O2)C[C@H](O)[C@H]1C [Substance 1] | – | 250 ng/mL (≈ 0.547 µM) | 24 ng/mL (≈ 0.0526 µM) | 500^b ng/ml | – | > 500 ng/mL | 80% | – | < 500 ng/mL | >500^b ng/ml | – | 16 ng/mL (≈ 0.035 µM) | – | virtually all cells tested are in the G1 phase | virtually all cells tested are in the G1 phase | the cells have largely lost their dendritic shape and detach easily from the carrier surface | < 5 ng/mL | 13 ng/mL (≈ 0.0285 µM) |
